Reference: patent publication US20240018166A1, “SULFONYL UREA NLRP3 INFLAMMASOME INHIBITORS” (Venatorx Pharmaceuticals, Inc., priority 2020, published 2024)

How the values were obtained:
IL-1β = IL-1β inhibition assay (ELISA/HTRF of culture supernatants); type: cell-based; settings: Homo sapiens, PMA-differentiated THP-1 cells, tested 10 μM to 0.003 μM
Experimental: Human monocyte-like THP-1 cells were grown in RPMI media supplemented with 10% FBS (growth media) at 37° C., 5% CO2. Cell cultures were passaged every three days and maintained at a density of 5×10^5 to 1×10^6 cells per mL.
Compounds were prepared as 10 mM stock solutions in 100% DMSO. […] Each 200× dilution was then diluted 20-fold in growth media (step down dilution) to yield a 10× final assay concentration range. All compounds were tested over a final assay concentration range of 10 μM to 0.003 μM.
The level of IL-10 in supernatants from PMA-differentiated THP-1 cells was determined by ELISA using either the R&D Systems Human IL-1 beta/IL-1F2 Quantikine ELISA or the cisbio HTRF human IL 1 beta kit. Manufacturer's protocols were followed without deviation.
Background values were subtracted and resulting values were converted to percentage of vehicle-treated controls. Data was analyzed via GraphPad Prism 7.0 using a non-linear regression (variable slope (four-parameter)) equation.
Table 2 provides IL-10 ELISA EC50 values for example compounds. A indicates EC50>10 μM; B indicates EC50 between 1 and 10 μM (inclusive); C indicates EC50<1 μM.

[1] = MTT cell viability assay, THP-1 cells; type: cell-based; settings: human, unstimulated THP-1 cells, read-out: THP-1 Cytotoxicity CC50
Experimental: In order to assess the cytotoxicity of the compounds, an MTT cell viability assay was performed in either unstimulated THP-1 or HepG2 cells as follows. 5×10^4 THP-1 or 5×10^3 HepG2 cells were seeded into each well of a 96-well plate in 90 μL of media. Compounds were added to cells as described for the IL-10 assay and returned to the incubator for an additional 72 hours. Next, 25 μL of MTT solution (5 mg/mL in sterile PBS) was added to each well. Plates were incubated for 3 hours at 37° C., 5% CO2. Next, for THP-1 cells, 100 μl of MTT solubilization solution (40% Dimethylformamide, 2% glacial acetic acid, 16% sodium dodecyl sulfate) was then added to each well and plates were incubated at room temperature in the dark overnight. For HepG2 cells, media was aspirated, 50 μL of DMSO was added and plates were mixed briefly with an orbital plate shaker. Absorbance at 570 nm was measured using a Perkin-Elmer EnVision plate reader.
Absorbance values were converted to percentage of vehicle-treated controls. Data was then analyzed using a non-linear regression (variable slope (four-parameter)) equation in GraphPad Prism 7.0.
Table 2 provides THP-1 cytotoxicity assay CC50 values for example compounds. A indicates CC50>10 μM; B indicates CC50 between 1 and 10 μM (inclusive); C indicates CC50<1 μM. NT, not tested.

Row | EC50 (IL-1β) [µM] | Compound | CC50 at 72 h [1] [µM]
1 | 1 to 10 | CC(C)c1cc(B(O)O)cc(C(C)C)c1NC(=O)NS(=O)(=O)c1cnn(C(C)C)c1 [Example 24, (3,5-diisopropyl-4-(3-((1-isopropyl-1H-pyrazol-4-yl)sulfonyl)ureido)phenyl)boronic acid] | > 10
2 | 1 to 10 | CC(C)c1cc(B2OC(C)(C)C(C)(C)O2)cc(C(C)C)c1NC(=O)NS(=O)(=O)c1ccn(C(C)C)n1 [Example 30, N-((2,6-diisopropyl-4-(4,4,5,5-tetramethyl-1,3,2-dioxaborolan-2-yl)phenyl)carbamoyl)-1-isopropyl-1H-pyrazole-3-sulfonamide] | > 10
3 | > 10 | CC(C)c1cc(B(O)O)cc(C(C)C)c1NC(=O)NS(=O)(=O)c1ccn(C(C)C)n1 [Example 31, (3,5-diisopropyl-4-(3-((1-isopropyl-1H-pyrazol-3-yl)sulfonyl)ureido)phenyl)boronic acid] | > 10
4 | > 10 | COC(=O)c1ccc(S(=O)(=O)NC(=O)Nc2c3c(cc4c2CCC4)CCC3)cc1B(O)O [Example 35, (5-(N-((1,2,3,5,6,7-hexahydro-s-indacen-4-yl)carbamoyl)sulfamoyl)-2-(methoxycarbonyl)phenyl)boronic acid] | > 10
5 | 1 to 10 | O=C(Nc1c2c(cc3c1CCC3)CCC2)NS(=O)(=O)c1ccc(O)c(CCCB(O)O)c1 [Example 37, (3-(5-(N-((1,2,3,5,6,7-hexahydro-s-indacen-4-yl)carbamoyl)sulfamoyl)-2-hydroxyphenyl)propyl)boronic acid] | > 10
6 | 1 to 10 | O=C(Nc1c2c(cc3c1CCC3)CCC2)NS(=O)(=O)c1ccc(O)c(CB(O)O)c1 [Example 38, (5-(N-((1,2,3,5,6,7-hexahydro-s-indacen-4-yl)carbamoyl)sulfamoyl)-2-hydroxybenzyl)boronic acid] | > 10
7 | 1 to 10 | COc1ccc(S(=O)(=O)NC(=O)Nc2c3c(cc4c2CCC4)CCC3)cc1CB(O)O [Example 39, (5-(N-((1,2,3,5,6,7-hexahydro-s-indacen-4-yl)carbamoyl)sulfamoyl)-2-methoxybenzyl)boronic acid] | > 10
8 | 1 to 10 | O=C(Nc1c2c(cc3c1CCC3)CCC2)NS(=O)(=O)c1ccc(CCCB(O)O)c(O)c1 [Example 40, (3-(4-(N-((1,2,3,5,6,7-hexahydro-s-indacen-4-yl)carbamoyl)sulfamoyl)-2-hydroxyphenyl)propyl)boronic acid] | > 10
9 | 1 to 10 | COc1ccc(S(=O)(=O)NC(=O)Nc2c3c(cc4c2CCC4)CCC3)cc1B(O)O [Example 43, (5-(N-((1,2,3,5,6,7-hexahydro-s-indacen-4-yl)carbamoyl)sulfamoyl)-2-methoxyphenyl)boronic acid] | > 10
10 | 1 to 10 | O=C(Nc1c2c(cc3c1CCC3)CCC2)NS(=O)(=O)c1ccc(CB(O)O)c(O)c1 [Example 44, (4-(N-((1,2,3,5,6,7-hexahydro-s-indacen-4-yl)carbamoyl)sulfamoyl)-2-hydroxybenzyl)boronic acid] | > 10

The remaining lines, values behind:

Row | Compound | EC50 (IL-1β) [µM] | CC50 at 72 h [1] [µM]
11 | C[N+]12CC(=O)O[B-]1(c1cccc(S(=O)(=O)NC(=O)Nc3c4c(cc5c3CCC5)CCC4)c1)OC(=O)C2 (stereo not drawn) [Example 26, N-((1,2,3,5,6,7-hexahydro-s-indacen-4-yl)carbamoyl)-3-(4-methyl-2,6-dioxotetrahydro-2H-414,814-[1,3,2]oxazaborolo[2,3-b][1,3,2]oxazaborol-8-yl)benzenesulfonamide] | < 1 | > 10
12 | C[N+]12CC(=O)O[B-]1(c1ccc(S(=O)(=O)NC(=O)Nc3c4c(cc5c3CCC5)CCC4)cc1)OC(=O)C2 (stereo not drawn) [Example 27, N-((1,2,3,5,6,7-hexahydro-s-indacen-4-yl)carbamoyl)-4-(4-methyl-2,6-dioxotetrahydro-2H-414,814-[1,3,2]oxazaborolo[2,3-b][1,3,2]oxazaborol-8-yl)benzenesulfonamide] | < 1 | > 10
13 | C[N+]12CCO[B-]1(c1cccc(S(=O)(=O)NC(=O)Nc3c4c(cc5c3CCC5)CCC4)c1)OCC2 (stereo not drawn) [Example 28, N-((1,2,3,5,6,7-hexahydro-s-indacen-4-yl)carbamoyl)-3-(4-methyltetrahydro-2H-414,814-[1,3,2]oxazaborolo[2,3-b][1,3,2]oxazaborol-8-yl)benzenesulfonamide] | < 1 | > 10
14 | O=C(Nc1c2c(cc3c1CCC3)CCC2)NS(=O)(=O)c1ccc2c(c1)COB2O [Example 29, N-((1,2,3,5,6,7-hexahydro-s-indacen-4-yl)carbamoyl)-1-hydroxy-1,3-dihydrobenzo[c][1,2]oxaborole-5-sulfonamide] | < 1 | > 10
15 | COc1ccc(S(=O)(=O)NC(=O)Nc2c3c(cc4c2CCC4)CCC3)cc1CCB1OC(C)(C)C(C)(C)O1 [Example 32, N-((1,2,3,5,6,7-hexahydro-s-indacen-4-yl)carbamoyl)-4-methoxy-3-(2-(4,4,5,5-tetramethyl-1,3,2-dioxaborolan-2-yl)ethyl)benzenesulfonamide] | 1 to 10 | > 10
16 | O=C(Nc1c2c(cc3c1CCC3)CCC2)NS(=O)(=O)c1ccc2c(c1)CCB(O)O2 [Example 33, N-((1,2,3,5,6,7-hexahydro-s-indacen-4-yl)carbamoyl)-2-hydroxy-3,4-dihydro-2H-benzo[e][1,2]oxaborinine-6-sulfonamide] | 1 to 10 | > 10
17 | O=C(Nc1c2c(cc3c1CCC3)CCC2)NS(=O)(=O)c1cc(F)cc2c1B(O)OC2 [Example 34, 5-fluoro-N-((1,2,3,5,6,7-hexahydro-s-indacen-4-yl)carbamoyl)-1-hydroxy-1,3-dihydrobenzo[c][1,2]oxaborole-7-sulfonamide] | 1 to 10 | > 10
18 | O=C(Nc1c2c(cc3c1CCC3)CCC2)NS(=O)(=O)c1ccc2c(c1)B(O)OC2=O [Example 36, N-((1,2,3,5,6,7-hexahydro-s-indacen-4-yl)carbamoyl)-1-hydroxy-3-oxo-1,3-dihydrobenzo[c][1,2]oxaborole-6-sulfonamide] | > 10 | > 10
19 | O=C(Nc1c2c(cc3c1CCC3)CCC2)NS(=O)(=O)c1ccc2c(c1)OB(O)CC2 [Example 41, N-((1,2,3,5,6,7-hexahydro-s-indacen-4-yl)carbamoyl)-2-hydroxy-3,4-dihydro-2H-benzo[e][1,2]oxaborinine-7-sulfonamide] | 1 to 10 | > 10
20 | COc1cc(S(=O)(=O)NC(=O)Nc2c3c(cc4c2CCC4)CCC3)ccc1CB1O[C@@H]2C[C@@H]3C[C@@H](C3(C)C)[C@]2(C)O1 [Example 42, N-((1,2,3,5,6,7-hexahydro-s-indacen-4-yl)carbamoyl)-3-methoxy-4-(((3aS,4S,6S,7aR)-3a,5,5-trimethylhexahydro-4,6-methanobenzo[d][1,3,2]dioxaborol-2-yl)methyl)benzenesulfonamide] | < 1 | > 10
21 | COc1ccc(S(=O)(=O)NC(=O)Nc2c3c(cc4c2CCC4)CCC3)cc1CCCB1OC(C)(C)C(C)(C)O1 [Example 45, N-((1,2,3,5,6,7-hexahydro-s-indacen-4-yl)carbamoyl)-4-methoxy-3-(3-(4,4,5,5-tetramethyl-1,3,2-dioxaborolan-2-yl)propyl)benzenesulfonamide] | 1 to 10 | > 10
